Data: publication PMC6407913, “DREADD Agonist 21 Is an Effective Agonist for Muscarinic-Based DREADDs in Vitro and in Vivo” (ACS Pharmacology & Translational Science, 2018)
Several values for one entry are separate records, joined by “and”; a condition that tells them apart may be missing. Equal entries are not always repeated. Where two headings read alike, the source gives them in different places.

What was measured:
[1] = brain and plasma exposure after i.p. administration; type: in vivo, mice
5-HT1B = molecular target: T1, 5-HT1B (Homo sapiens, UniProt P28222); experiment: NIMH PDSP radioligand binding, membranes
T1 construct: NIMH PDSP
Method: (§1) Radioligand binding assays with membrane preparations to determine binding affinity were carried out as outlined before[540] and by the National Institute of Mental Health’s Psychoactive Drug Screening Program (NIMH PDSP) (https://pdsp.unc.edu/), Contract # HHSN-271–2013–00017-C. The NIMH PDSP is Directed by B.L.R. at the University of North Carolina at Chapel Hill, Chapel Hill, NC, and Project Officer Jamie Driscoll at NIMH, Bethesda, MD.

M4 = M4 (Homo sapiens, UniProt P08173); experiment: NIMH PDSP radioligand binding, membranes
Method: as §1

D5 = D5 (Homo sapiens, UniProt P21918); experiment: NIMH PDSP radioligand binding, membranes
Method: as §1

5-HT5A = molecular target: T2, 5-HT5A (Homo sapiens, UniProt P47898); experiment: NIMH PDSP radioligand binding, membranes
T2 construct: NIMH PDSP
Method: as §1

D2 = D2 (Homo sapiens, UniProt P14416); experiment: NIMH PDSP radioligand binding, membranes
Method: as §1

H1 = H1 (Homo sapiens, UniProt P35367); experiment: NIMH PDSP radioligand binding, membranes
Method: as §1

CB2 = molecular target: T3, CB2 (Homo sapiens, UniProt P34972); experiment: NIMH PDSP radioligand binding, membranes
T3 construct: NIMH PDSP
Method: as §1

CB1 = CB1 (Homo sapiens, UniProt P21554); experiment: NIMH PDSP radioligand binding, membranes
Method: as §1

H3 = H3 (Homo sapiens, UniProt Q9Y5N1); experiment: NIMH PDSP radioligand binding, membranes
Method: as §1

5-HT6 = molecular target: T4, 5-HT6 (Homo sapiens, UniProt P50406); experiment: NIMH PDSP radioligand binding, membranes
T4 construct: NIMH PDSP
Method: as §1

KOR = KOR (Homo sapiens, UniProt P41145); experiment: NIMH PDSP radioligand binding, membranes
Method: as §1

H4 = H4 (Homo sapiens, UniProt Q9H3N8); experiment: NIMH PDSP radioligand binding, membranes
Method: as §1

M2 = M2 (Homo sapiens, UniProt P08172); experiment: NIMH PDSP radioligand binding, membranes
Method: as §1

5-HT7 = molecular target: T5, 5-HT7 (Homo sapiens, UniProt P34969); experiment: NIMH PDSP radioligand binding, membranes
T5 construct: NIMH PDSP
Method: as §1

5-HT2C = molecular target: T6, 5-HT2C (Homo sapiens, UniProt P28335); experiment: NIMH PDSP radioligand binding, membranes
T6 sequence (P28335 33-458): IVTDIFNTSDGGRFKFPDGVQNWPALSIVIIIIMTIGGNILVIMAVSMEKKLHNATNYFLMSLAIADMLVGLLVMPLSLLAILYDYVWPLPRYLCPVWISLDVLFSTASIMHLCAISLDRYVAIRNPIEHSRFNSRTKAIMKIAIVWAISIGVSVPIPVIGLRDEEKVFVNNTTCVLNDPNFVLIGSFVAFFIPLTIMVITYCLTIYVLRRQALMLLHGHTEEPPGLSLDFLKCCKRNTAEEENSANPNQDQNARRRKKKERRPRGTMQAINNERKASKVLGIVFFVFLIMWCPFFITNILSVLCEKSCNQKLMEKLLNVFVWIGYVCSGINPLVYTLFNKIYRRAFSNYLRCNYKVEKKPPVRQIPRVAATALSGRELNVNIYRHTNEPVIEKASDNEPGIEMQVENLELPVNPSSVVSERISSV
Method: as §1

hM1 [2] = molecular target: T7, hM1 (Homo sapiens, UniProt P11229); experiment: whole-cell [3H]NMS competition binding; details: hM1, FlpIn CHO cells, mean (±SEM)
T7 sequence (P11229 1-460): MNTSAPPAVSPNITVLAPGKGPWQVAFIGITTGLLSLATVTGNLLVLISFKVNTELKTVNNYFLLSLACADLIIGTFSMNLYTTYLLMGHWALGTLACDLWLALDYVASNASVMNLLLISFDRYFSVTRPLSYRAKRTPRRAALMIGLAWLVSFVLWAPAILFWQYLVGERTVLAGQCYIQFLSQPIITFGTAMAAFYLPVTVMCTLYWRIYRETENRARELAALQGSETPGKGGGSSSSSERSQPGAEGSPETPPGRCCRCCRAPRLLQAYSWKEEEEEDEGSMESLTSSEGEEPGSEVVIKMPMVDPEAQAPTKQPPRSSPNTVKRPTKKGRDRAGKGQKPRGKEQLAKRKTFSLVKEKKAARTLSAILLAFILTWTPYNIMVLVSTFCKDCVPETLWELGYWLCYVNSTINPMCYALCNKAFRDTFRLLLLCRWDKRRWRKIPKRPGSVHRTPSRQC

hM1 [3] = molecular target: T7, hM1; experiment: pERK assay, antagonist mode (shift of ACh curve); type: cell-based; details: hM1, CHO cells
From the text: In the absence of C21 ([B] = 0), this equation becomes the standard four-parameter logistic equation for fitting agonist concentration–response data.

[4] = i.p. 0.1, 1 and 10 mg/kg, 30 min after administration
[5] = read-out: Ki #1-#5 (individual assays)
[6] = read-out: log Ki (individual assays) (converted)
[7] = read-out: pKi (mean) (converted)

KOR, sequence (P41145 whole entry): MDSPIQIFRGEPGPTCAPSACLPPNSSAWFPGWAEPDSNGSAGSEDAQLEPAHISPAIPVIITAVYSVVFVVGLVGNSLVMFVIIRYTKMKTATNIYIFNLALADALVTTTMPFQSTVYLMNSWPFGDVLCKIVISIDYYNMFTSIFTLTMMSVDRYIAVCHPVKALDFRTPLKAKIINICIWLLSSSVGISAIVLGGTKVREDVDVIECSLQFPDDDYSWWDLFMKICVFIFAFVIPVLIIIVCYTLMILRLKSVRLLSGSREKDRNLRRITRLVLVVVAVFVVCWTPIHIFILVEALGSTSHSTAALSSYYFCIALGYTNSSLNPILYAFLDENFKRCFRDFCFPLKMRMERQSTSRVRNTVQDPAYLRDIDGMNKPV
H3, sequence (Q9Y5N1 whole entry): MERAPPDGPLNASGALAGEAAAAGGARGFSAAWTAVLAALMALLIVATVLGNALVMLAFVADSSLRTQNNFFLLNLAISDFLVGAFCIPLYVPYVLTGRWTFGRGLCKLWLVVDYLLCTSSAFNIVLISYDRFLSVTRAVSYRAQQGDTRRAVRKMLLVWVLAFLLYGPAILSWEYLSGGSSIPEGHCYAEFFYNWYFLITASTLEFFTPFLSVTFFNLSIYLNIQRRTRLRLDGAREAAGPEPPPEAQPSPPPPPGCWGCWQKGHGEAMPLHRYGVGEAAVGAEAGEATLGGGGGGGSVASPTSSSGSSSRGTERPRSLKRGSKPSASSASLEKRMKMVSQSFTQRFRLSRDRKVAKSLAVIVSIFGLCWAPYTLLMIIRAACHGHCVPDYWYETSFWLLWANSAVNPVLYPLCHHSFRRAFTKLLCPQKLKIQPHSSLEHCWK
M4, sequence (P08173 whole entry): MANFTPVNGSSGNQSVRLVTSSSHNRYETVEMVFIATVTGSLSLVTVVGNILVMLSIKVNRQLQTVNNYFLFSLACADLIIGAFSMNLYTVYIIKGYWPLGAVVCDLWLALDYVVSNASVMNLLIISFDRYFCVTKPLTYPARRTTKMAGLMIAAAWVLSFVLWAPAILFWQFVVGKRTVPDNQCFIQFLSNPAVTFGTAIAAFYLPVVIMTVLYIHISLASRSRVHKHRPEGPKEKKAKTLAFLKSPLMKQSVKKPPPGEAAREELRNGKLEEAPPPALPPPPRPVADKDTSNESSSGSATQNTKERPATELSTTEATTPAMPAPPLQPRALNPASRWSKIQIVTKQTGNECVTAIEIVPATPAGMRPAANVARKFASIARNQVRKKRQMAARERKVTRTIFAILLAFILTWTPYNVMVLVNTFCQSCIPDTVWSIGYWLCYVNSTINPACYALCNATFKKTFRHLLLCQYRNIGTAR
T4 sequence (P50406 whole entry, species assumed): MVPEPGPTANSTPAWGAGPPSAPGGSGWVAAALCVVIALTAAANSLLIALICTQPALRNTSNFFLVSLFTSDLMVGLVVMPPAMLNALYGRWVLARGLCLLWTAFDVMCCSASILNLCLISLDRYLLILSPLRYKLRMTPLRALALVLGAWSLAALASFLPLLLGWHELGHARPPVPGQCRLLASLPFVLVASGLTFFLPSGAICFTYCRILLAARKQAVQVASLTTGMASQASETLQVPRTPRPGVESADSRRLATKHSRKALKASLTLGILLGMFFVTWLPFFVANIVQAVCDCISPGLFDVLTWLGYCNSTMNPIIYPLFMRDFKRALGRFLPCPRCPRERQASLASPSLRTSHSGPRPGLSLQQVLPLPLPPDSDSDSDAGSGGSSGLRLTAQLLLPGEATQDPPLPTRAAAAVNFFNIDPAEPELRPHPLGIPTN
D5, sequence (P21918 whole entry): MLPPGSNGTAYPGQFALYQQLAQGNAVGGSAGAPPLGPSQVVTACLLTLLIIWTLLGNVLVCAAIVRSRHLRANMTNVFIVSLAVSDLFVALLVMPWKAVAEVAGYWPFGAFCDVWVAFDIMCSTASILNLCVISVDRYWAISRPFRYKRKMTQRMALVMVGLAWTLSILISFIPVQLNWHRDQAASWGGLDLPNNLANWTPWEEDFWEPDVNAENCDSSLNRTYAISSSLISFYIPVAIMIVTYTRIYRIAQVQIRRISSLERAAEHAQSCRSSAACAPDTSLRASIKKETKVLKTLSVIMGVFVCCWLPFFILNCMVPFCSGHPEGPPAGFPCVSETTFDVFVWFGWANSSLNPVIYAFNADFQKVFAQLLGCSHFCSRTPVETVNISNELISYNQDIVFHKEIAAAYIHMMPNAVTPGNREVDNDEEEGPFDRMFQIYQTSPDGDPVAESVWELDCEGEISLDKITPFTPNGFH
D2, sequence (P14416 whole entry): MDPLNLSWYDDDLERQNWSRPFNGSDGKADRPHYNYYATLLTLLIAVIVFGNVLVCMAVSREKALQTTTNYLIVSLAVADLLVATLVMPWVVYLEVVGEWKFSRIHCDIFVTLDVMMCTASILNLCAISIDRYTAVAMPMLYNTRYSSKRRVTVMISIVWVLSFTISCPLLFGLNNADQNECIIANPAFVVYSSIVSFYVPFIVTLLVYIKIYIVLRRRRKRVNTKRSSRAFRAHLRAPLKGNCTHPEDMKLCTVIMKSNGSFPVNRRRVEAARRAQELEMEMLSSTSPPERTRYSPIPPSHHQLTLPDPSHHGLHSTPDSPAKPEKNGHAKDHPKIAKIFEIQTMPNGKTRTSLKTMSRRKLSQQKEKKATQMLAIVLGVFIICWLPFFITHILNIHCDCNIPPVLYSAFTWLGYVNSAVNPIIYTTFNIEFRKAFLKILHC
H4, sequence (Q9H3N8 whole entry): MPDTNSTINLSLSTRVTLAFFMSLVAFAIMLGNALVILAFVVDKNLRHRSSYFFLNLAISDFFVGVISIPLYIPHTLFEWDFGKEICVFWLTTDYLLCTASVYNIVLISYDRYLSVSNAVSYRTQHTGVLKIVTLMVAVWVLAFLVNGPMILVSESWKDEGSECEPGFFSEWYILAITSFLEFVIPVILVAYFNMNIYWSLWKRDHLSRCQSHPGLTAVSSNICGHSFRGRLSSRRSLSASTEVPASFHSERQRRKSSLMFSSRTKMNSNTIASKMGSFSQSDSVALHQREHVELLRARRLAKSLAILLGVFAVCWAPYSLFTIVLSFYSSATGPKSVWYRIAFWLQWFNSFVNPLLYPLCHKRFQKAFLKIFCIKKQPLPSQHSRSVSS
M2, sequence (P08172 whole entry): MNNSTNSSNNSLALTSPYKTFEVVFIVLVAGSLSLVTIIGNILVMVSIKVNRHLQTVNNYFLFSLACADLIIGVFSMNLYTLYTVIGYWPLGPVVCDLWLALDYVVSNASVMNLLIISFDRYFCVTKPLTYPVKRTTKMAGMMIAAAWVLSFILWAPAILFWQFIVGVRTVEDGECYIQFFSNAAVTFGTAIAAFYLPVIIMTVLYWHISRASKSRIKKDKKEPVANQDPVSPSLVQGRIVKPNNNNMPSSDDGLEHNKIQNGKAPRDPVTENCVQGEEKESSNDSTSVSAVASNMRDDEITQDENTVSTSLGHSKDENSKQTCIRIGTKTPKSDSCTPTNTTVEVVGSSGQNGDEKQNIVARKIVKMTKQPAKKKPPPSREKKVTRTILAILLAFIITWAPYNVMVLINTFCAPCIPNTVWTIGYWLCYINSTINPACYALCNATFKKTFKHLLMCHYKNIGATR
T5 sequence (P34969 whole entry, species assumed): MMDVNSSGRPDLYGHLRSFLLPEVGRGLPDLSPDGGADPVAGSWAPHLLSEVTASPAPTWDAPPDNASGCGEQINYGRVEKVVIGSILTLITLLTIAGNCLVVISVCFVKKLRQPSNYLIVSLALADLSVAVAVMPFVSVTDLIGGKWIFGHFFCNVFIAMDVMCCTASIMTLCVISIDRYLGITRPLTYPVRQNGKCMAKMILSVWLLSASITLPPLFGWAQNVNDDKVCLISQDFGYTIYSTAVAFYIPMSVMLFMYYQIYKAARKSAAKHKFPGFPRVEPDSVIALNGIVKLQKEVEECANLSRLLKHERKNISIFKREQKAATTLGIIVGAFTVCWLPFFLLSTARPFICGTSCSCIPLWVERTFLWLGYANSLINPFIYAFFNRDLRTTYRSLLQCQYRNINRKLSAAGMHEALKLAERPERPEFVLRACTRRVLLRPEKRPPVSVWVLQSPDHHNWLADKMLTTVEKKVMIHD
H1, sequence (P35367 whole entry): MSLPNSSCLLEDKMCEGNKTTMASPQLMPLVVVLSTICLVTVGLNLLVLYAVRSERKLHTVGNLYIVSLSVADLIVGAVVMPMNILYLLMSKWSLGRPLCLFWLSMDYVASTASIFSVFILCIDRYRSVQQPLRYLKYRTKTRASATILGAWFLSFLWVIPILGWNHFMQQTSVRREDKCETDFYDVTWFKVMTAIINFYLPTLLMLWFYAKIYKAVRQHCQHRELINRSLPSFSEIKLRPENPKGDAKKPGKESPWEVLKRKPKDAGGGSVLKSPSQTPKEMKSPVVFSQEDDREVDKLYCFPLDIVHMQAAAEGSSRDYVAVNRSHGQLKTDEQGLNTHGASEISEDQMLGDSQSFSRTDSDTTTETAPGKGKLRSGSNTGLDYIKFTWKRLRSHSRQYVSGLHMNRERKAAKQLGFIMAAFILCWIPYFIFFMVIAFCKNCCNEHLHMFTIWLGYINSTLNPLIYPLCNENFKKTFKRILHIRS
T2 sequence (P47898 whole entry, species assumed): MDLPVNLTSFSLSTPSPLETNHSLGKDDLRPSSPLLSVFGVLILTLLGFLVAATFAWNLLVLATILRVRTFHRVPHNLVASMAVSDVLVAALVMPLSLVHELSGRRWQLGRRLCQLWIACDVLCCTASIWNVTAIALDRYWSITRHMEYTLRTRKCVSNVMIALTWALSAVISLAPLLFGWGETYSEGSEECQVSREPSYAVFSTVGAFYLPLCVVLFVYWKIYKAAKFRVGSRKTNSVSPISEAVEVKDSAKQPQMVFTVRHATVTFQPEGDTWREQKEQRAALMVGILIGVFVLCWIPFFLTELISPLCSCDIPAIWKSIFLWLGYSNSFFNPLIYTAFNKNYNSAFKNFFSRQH

**Q.** For c1ccc2c(c1)N=C(N1CCNCC1)c1ccccc1N2 [C21, 11-(1-piperazinyl)-5H-dibenzo[b,e][1,4]diazepine], which “effective free concentration at the peak, brain” value ([1]; 5 mg/kg i.p.) is on record?
**A.** The value was 28 nM.

**Q.** What about the “effective free concentration at the peak, plasma” value ([1]; 5 mg/kg i.p.) of the same compound?
**A.** The value was about 54 nM.

**Q.** What about the brain level reached ([1]; 5 mg/kg i.p., time course) of the same compound?
**A.** The brain level reached was 579 ng/mL and 2 μM.

**Q.** What about the peak plasma level ([1]; 5 mg/kg i.p., time course) of the same compound?
**A.** Its peak plasma level is 1150 ng/mL and 4.12 μM.

**Q.** And the “calculated free brain concentration” value ([1]; dose 0.3 mg/kg, mice)?
**A.** Its value is about 1.7 nM.

**Q.** And the calculated free concentration ([1]; dose 3 mg/kg, mice)?
**A.** Its calculated free concentration is about 17 nM.

**Q.** And the “brain and plasma levels” value [1, 4]?
**A.** The value was “measurable brain and plasma levels”.

**Q.** What about the metabolism to clozapine [1, 4] of the same compound?
**A.** Its metabolism to clozapine is “no evidence of metabolism to clozapine”.

**Q.** And the Ki (5-HT1B; read-out: Ki)?
**A.** The Ki was 3640 nM.

**Q.** What about the Ki (5-HT1B; [5]) of the same compound?
**A.** Its Ki is 4590 nM and 4530 nM and 2320 nM.

**Q.** What about the Ki (5-HT1B; [6]) of the same compound?
**A.** Its Ki is 4570 nM.

**Q.** And the Ki (M4; read-out: Ki)?
**A.** The Ki was 1880 nM.

**Q.** And the Ki (M4; [5])?
**A.** The Ki was 1560 nM and 2440 nM and 3020 nM and 734 nM and 2800 nM.

**Q.** What about the Ki (D5; read-out: Ki) of the same compound?
**A.** The Ki was 2900 nM.

**Q.** And the Ki (D5; [5])?
**A.** The Ki was 4110 nM and 1650 nM and 3620 nM.

**Q.** What about the Ki (5-HT5A; read-out: Ki) of the same compound?
**A.** Its Ki is 1910 nM.

**Q.** What about the Ki (5-HT5A; [5]) of the same compound?
**A.** The Ki was 3300 nM and 1400 nM and 2020 nM and 1430 nM.

**Q.** And the Ki (D2; read-out: Ki)?
**A.** The Ki was 4570 nM.

**Q.** And the Ki (D2; [5])?
**A.** Its Ki is 2750 nM and 4740 nM and 7340 nM.

**Q.** What about the Ki (H1; [5]) of the same compound?
**A.** The Ki was 4.5 nM.

**Q.** And the Ki (H1; [6])?
**A.** The Ki was 3.47 nM and 2.4 nM.

**Q.** And the Ki (H1; [7])?
**A.** The Ki was 3.39 nM.

**Q.** What about the Ki (CB2; read-out: Ki) of the same compound?
**A.** The Ki was over 10000 nM.

**Q.** What about the Ki (CB2; [5]) of the same compound?
**A.** Its Ki is over 10000 nM.

**Q.** What about the Ki (CB1; read-out: Ki) of the same compound?
**A.** The Ki was over 10000 nM.

**Q.** And the Ki (CB1; [5])?
**A.** The Ki was over 10000 nM.

**Q.** And the Ki (H3; read-out: Ki)?
**A.** The Ki was 4940 nM.

**Q.** And the Ki (H3; [5])?
**A.** The Ki was 6850 nM and 4580 nM and 3850 nM.

**Q.** What about the Ki (5-HT6; read-out: Ki) of the same compound?
**A.** The Ki was 266 nM.

**Q.** What about the Ki (5-HT6; [5]) of the same compound?
**A.** The Ki was 421 nM and 193 nM and 232 nM.

**Q.** What about the Ki (KOR; read-out: Ki) of the same compound?
**A.** Its Ki is 2980 nM.

**Q.** What about the Ki (KOR; [5]) of the same compound?
**A.** The Ki was 6690 nM and 2680 nM and 1470 nM.

**Q.** What about the Ki (H4; read-out: Ki) of the same compound?
**A.** Its Ki is over 10000 nM.

**Q.** What about the Ki (H4; [5]) of the same compound?
**A.** The Ki was over 10000 nM.

**Q.** And the Ki (H4; [7])?
**A.** Its Ki is over 10000 nM.

**Q.** And the Ki (M2; read-out: Ki)?
**A.** The Ki was 146 nM.

**Q.** What about the Ki (M2; [5]) of the same compound?
**A.** The Ki was 246 nM and 139 nM and 91 nM.

**Q.** What about the Ki (5-HT7; read-out: Ki) of the same compound?
**A.** Its Ki is 107 nM.

**Q.** And the Ki (5-HT7; [5])?
**A.** Its Ki is 104 nM and 77 nM and 152 nM.

**Q.** What about the Ki (5-HT2C; read-out: Ki) of the same compound?
**A.** The Ki was 47.9 nM.

**Q.** And the Ki (5-HT2C; [5])?
**A.** The Ki was 48.2 nM and 57 nM.

**Q.** And the Ki (5-HT2C; [6])?
**A.** The Ki was 39.8 nM.

**Q.** And the Ki (hM1 [2])?
**A.** Its Ki is 1070 nM.

**Q.** And the “antagonist activity (shift of acetylcholine curve, pERK)” value (hM1 [3])?
**A.** Its value is “weak functional antagonism”.
